Assays:
Hepatitis C virus [1] = test: Antiviral activity against Hepatitis C virus genotype 1a infected in W11.8 cells assessed as decrease in NS5A expression in replicon cell after 4 days by luminescence based ELISA; assay type: functional, Hepacivirus hominis; conditions: subtype 1a, W11.8, 96 h
Hepatitis C virus [2] = test: Antiviral activity against Hepatitis C virus genotype 1b infected in human Huh-5.2 cells assessed as decrease in HCV replicon RNA replication after 4 days by luciferase assay; assay type: functional, cell-based, Hepacivirus hominis; conditions: Huh-5-2, 96 h
[3] = Cytotoxicity against human HuhET cells by [3H]thymidine incorporation assay; assay type: cell-based
[4] = Clearance in iv dosed Sprague-Dawley rat; assay type: ADME, organism-based; conditions: in vivo
[5] = Half life in iv dosed Sprague-Dawley rat; assay type: ADME, organism-based; conditions: in vivo
[6] = Volume of distribution at steady state in iv dosed Sprague-Dawley rat; assay type: ADME, organism-based; conditions: in vivo, read-out: Vdss

EC50 (Hepatitis C virus [1]) [nM]	EC50 (Hepatitis C virus [2]) [nM]	clearance [4] [L/h/kg]	half-life [5] [h]	Vd [6] [L/kg]	Compound	CC50 [3] [nM]
184	0.17	–	–	–	COC(=O)N[C@H](C(=O)N1C[C@@H](C)C[C@H]1c1nc2sc(C#CC#Cc3cc4[nH]c([C@@H]5C[C@H](C)CN5C(=O)[C@@H](NC(=O)OC)C(C)C)nc4s3)cc2[nH]1)C(C)C	> 20000
6	0.006	0.48	4.5	2.2	COC(=O)N[C@H](C(=O)N1C[C@@H](C)C[C@H]1c1nc2sc(-c3ccc(-c4ccc(-c5cc6[nH]c([C@@H]7C[C@H](C)CN7C(=O)[C@@H](NC(=O)OC)C(C)C)nc6s5)cc4)cc3)cc2[nH]1)C(C)C	> 20000
281	0.386	0.492	5.2	3.3	COC(=O)N[C@H](C(=O)N1CCC[C@H]1c1nc2sc(C#CC#Cc3cc4[nH]c([C@@H]5CCCN5C(=O)[C@@H](NC(=O)OC)C(C)C)nc4s3)cc2[nH]1)C(C)C	6100

Source: ChEMBL document CHEMBL3392960, “Discovery of thienoimidazole-based HCV NS5A inhibitors. Part 1: C2-symmetric inhibitors with diyne and biphenyl linkers” (Bioorg Med Chem Lett, 2015)
